Experimental data taken from US12497614B2, “Compositions and methods for editing beta-globin for treatment of hemaglobinopathies” (Vertex Pharmaceuticals Incorporated, priority 2020, dated 2025).

Columns and labels:
[1] = tested on: HBB gene in CD34+ HSPCs; assay: In vitro editing with T107 RNP, AAV.310 or AAV.320 and inhibitors before transplantation; NGS and cell growth (Example 6); details: for change in cell growth if cells were edited with the inhibitor: T107 RNP+AAV.310 or AAV.320, data not shown; for frequency of HDR relative to editing with T107 RNP and AAV only / frequency of INDELs relative to editing with T107 RNP and AAV only: i53 1 μg mRNA, Compound 984 1 μM or 3 μM
Procedure: Briefly, frozen CD34+ HSPCs isolated from plerixafor-mobilized peripheral blood obtained from two healthy human donors were thawed and seeded in media with components as described in Example 1. The cells were maintained in culture, and gene-editing was performed following two days of culture. For editing, 5×10^5 CD34+ HSPCs were electroporated with RNP containing 20 μg SpCas9 and 20 μg T107 sgRNA. Electroporation was performed using the CA-137 program of the Lonza Amaxa™ 4D-Nucleofector™. The cells were transduced with AAV.310 or AAV.320 for 1 hour at 37° C. prior to electroporation at a dose of 10,000 MOI. The cells were electroporated and immediately plated in medium containing Compound 984 at 1 μM or 3 μM.
Cells were maintained in culture for two days following electroporation. Fold change in cell-growth between day 0 and day 2 post-electroporation was quantified.
Additionally, gene-edits in HBB were evaluated in CD34+ HSPCs following two days of in vitro culture.

[2] = tested on: NBSGW mice; assay: Engraftment and persistence of gene-editing after in vivo administration of CD34+ HSPCs edited with T107 RNP, AAV.310 and Compound 984 (Example 14); set-up: species or system mouse; details: 16 weeks; T107 RNP+AAV.310 in the presence of Compound 984
Procedure: (§1) The cells were electroporated and immediately plated in medium only or medium containing Compound 984 at 3 μM. […] Genomic DNA was harvested from edited cells and used to evaluate HDR efficiency by […] as described in Example 1.
(§2) Following two days of in vitro culture, HSPCs were administered by intravenous injection to NBSGW mice at a dose of 0.5×10^6 cells per mouse. Recipient mice were treated with sublethal irradiation (100 cGy) at 1 day prior to administration of HSPCs. […] In total three independent replicates of the study were performed.
(§3) Bone marrow and peripheral blood was extracted at 16 weeks following HSPC administration and evaluated for presence of human hematopoietic cells using flow cytometry as described in Example 2. The percent chimerism (percentage of human CD45+ cells relative total cells expressing human CD45 or mouse CD45) in mouse bone marrow and peripheral blood is respectively shown in FIGS. 14A-14B.
(§4) Additionally, the lineage of human CD45+ cells was determined using markers for human B cells, T cells, myeloid cells, and HSPCs as described in Example 2.
(§5) The long term persistence of edits in the HBB gene present in HSPCs administered to each mouse cohorts was evaluated in genomic DNA extracted from bone marrow collected at 16 weeks. The frequency of donor template-encoded gene-edits in the HBB gene incorporated by HDR was quantified by NGS and is shown in FIG. 14D. […]

[3] = as above; set-up: species or system mouse; details: T107 RNP+AAV.310 in the presence of Compound 984 (3 μM)
Procedure: as §1, §2, §3, §4, §5

[4] = tested on: HBB gene locus and mRNA transcribed from HBB in CD34+ HSPCs; assay: Editing efficiency in genomic DNA and in HBB mRNA (Example 5); type: cell-based, human; details: genomic DNA, 48 hours post electroporation; 1 μM or 3 μM
Procedure: At 48 hours post electroporation genomic DNA was isolated from the edited cells and HDR to introduce the sickle mutation and INDEL frequencies were evaluated using next gene sequencing and computational analysis. On day 10 of differentiation, incorporation of the SCD mutation and frequency of INDELs present in mRNA transcribed from the HBB gene locus of edited cells was determined using RNA amplicon sequencing.

[5] = tested on: HBB locus in CD34+ HSPCs; assay: In vitro editing of HBB in CD34+ HSPCs with T223 RNP and AAV.321 (Example 9); type: cell-based, human; details: T223 RNP+AAV.321-edited cells treated with i53
Procedure: Gene-editing of HBB was evaluated using CD34+ HSPCs that were derived and maintained in culture as described in Example 1. HSPCs were subjected to gene-editing following two days of culture. To perform gene-editing, the cells were electroporated with RNP. Specifically, 5×10^6 cells were electroporated using the Maxcyte Buffer/HSC-3 program with RNP containing 20 μg SpCas9 and 20 μg sgRNA (T223 or R02). Cells were transfected with corresponding AAV donor template at a dose of 10,000 MOI (AAV.321 or AAV.323 respectively). The effect of 53BP1 inhibition and DNA-PK inhibitions on editing with RNP+AAV was also evaluated by treating cells with […] or 1 μg i53 mRNA+1 μM Nu7441.
The cells were cultured for two days following electroporation and prior to evaluation of editing efficiency. To evaluate editing efficiency, genomic DNA was harvested from edited cells, and frequency of HDR and frequency of INDELs at the predicted gRNA cut site was evaluated as described in Example 1.

[6] = tested on: human HBB gene locus in CD34+ HSPCs; assay: In vitro editing of HBB in CD34+ HSPCs with RNP and AAV donor template; HDR and INDELs by NGS (Example 1); type: cell-based; details: T107 RNP+AAV.320 with i53 (1 μg mRNA)
Procedure: Gene-editing of HBB was evaluated in CD34+ HSPCs. […] HSPCs were maintained in culture media containing IL-3 and were incubated at 37° C. under atmospheric conditions containing 5% carbon dioxide and 4% oxygen. […] To perform gene-editing, the cells were electroporated with RNP. Specifically, 1×10^6 cells were electroporated using the Maxcyte HSC-3 program with RNP containing 20 μg SpCas9 and 20 μg sgRNA (T107 or R02). AAV donor template was administered to cells prior to electroporation. Specifically, the cells were incubated with AAV (AAV.320 or AAV.323 respectively) at a dose of 10,000 MOI for one hour prior to electroporation.
Given efficiency of HDR repair is poor due to competition with other repair pathways (e.g., the NHEJ pathway), particularly in non-dividing or slowly dividing cells such as HSPCs, editing was also evaluated following treatment with molecules that inhibit targets in the NHEJ pathway, including 53BP1 and DNA-PK. […]
To evaluate HDR editing efficiency, genomic DNA was harvested from treated cells, and the frequency of the HBB allele encoding the expected gene edit (i.e., GAA encoding glutamate at position 6 downstream the HBB start codon (“E6”) for cells transduced with AAV.323 and silent mutations for cells transduced with AAV.320) was evaluated using a PCR amplification-based assay followed by next-generating sequencing (NGS). […]

Row | Compound | change in cell growth if cells were edited with the inhibitor [1] | frequency of HDR relative to editing with T107 RNP and AAV only [1] | frequency of INDELs relative to editing with T107 RNP and AAV only [1] | frequency of gene-edits in mouse bone marrow vs CD34+ HSPCs prior to transplantation [2] | frequency of gene-edits (HDR) in CD34+ HSPCs prior to transplantation [3] | frequency of INDELs at the T107 cut site compared to cells edited with T107 RNP+AAV.310 only [4] | level of HDR repair compared to cells edited with T107 RNP+AAV.310 only [4] | frequency of INDELs at the T223 cut site [5] | frequency of genomic DNA incorporating the E6V gene-edit [5] | HDR efficiency (donor-template-encoded gene-edit in HBB) [6]
1 | [2H]c1nc(C)nc([2H])c1-c1cc(NC[C@@H](C)c2cccc3c(C(=O)NC)ccnc23)ncn1 [Compound 984] | no substantial change | increased | decreased | comparable | approximately 45% | decreased | increased |  |  | 
2 | i53: polypeptide inhibitor of 53BP1 (SEQ ID NO: 11), introduced as an mRNA-encoded protein (ORF SEQ ID NO: 10) | no substantial change | increased | decreased |  |  |  |  | reduced | improved | approximately 25%
